Outcome and EC50 data for 62 compounds are collected here from PubChem BioAssay AID857 (Vanderbilt High Throughput Screening Facility, 2007).

Activity calls are given as the source filed them.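 The calls were made as follows: active = a full or partial dose-response curve in at least two of three replicate runs; inactive = the rest.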

Chain of D(1B) dopamine receptor (Homo sapiens) (P21918 whole entry, looked up): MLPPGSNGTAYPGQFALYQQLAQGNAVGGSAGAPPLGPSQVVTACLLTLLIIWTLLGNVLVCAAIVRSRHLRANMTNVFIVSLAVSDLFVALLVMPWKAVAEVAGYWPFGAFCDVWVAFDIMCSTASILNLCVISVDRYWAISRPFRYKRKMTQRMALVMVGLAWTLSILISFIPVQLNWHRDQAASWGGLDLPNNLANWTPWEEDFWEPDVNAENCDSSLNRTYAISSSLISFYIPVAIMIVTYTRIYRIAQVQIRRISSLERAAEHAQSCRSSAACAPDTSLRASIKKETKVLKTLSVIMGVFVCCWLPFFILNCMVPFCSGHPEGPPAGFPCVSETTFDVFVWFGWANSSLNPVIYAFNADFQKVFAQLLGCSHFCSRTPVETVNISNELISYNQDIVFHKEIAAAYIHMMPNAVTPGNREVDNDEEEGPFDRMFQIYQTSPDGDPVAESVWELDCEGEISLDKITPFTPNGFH

The assay concerns the target D(1B) dopamine receptor (Homo sapiens) (UniProt P21918). Kind of assay: dopamine D5 receptor modulation at EC30 dopamine, dose response, selectivity assay for D1 allosteric modulator project, cell-based, HEK293, CRE-luciferase, luminescence (AID 857).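 Also: HEK 293 cells expressing human D5 with a CRE-driven luciferase reporter.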
On to `COc1ccccc1-c1nnc2n1N=C(C(C)(C)C)CS2`, for which the result was inactive.
On the same count and under the same terms, for `COc1ccc2c(c1)C(=O)N(c1ccccc1OC)C(=O)C2(C)C` the value was “inactive”.
The same measure, in the same setting: the value for `O=C1C(Cl)=C(NCC2CCCO2)C(=O)N1C1CCCCC1` (configuration not stated) was “inactive”; that for `CCOc1ccccc1NC(=O)CN(C)S(=O)(=O)c1cccc2nsnc12` was “inactive”.
In the case of `Cc1ccc(CNc2nc3ccccc3n3nnnc23)cc1`, the outcome was inactive.
Same read-out and setting: the value for `COCCNC(=O)c1c(NC(=O)c2ccco2)n(Cc2ccccc2)c2nc3ccccc3nc12` was “inactive”.
The same measure, in the same setting: the value for `COc1ccc2c(C(F)(F)F)cc(=O)oc2c1C` was “inactive”.
The same measure, in the same setting: for `C=CCn1c(SCc2nc3c(c(=O)[nH]c(=O)n3CCCC)n2CCC)nnc1-c1ccccc1` the value was “inactive”; for `Cc1ccc(Nc2nnc(SCc3cc(=O)n4ccsc4n3)s2)c(C)c1`, “inactive”; for `Cc1ccc(-c2cc(-c3ccc4c(c3)OCO4)c(C#N)c(N)n2)o1`, “inactive”.
Turning to `CC(=NCc1cccnc1)C1=C(O)c2ccccc2C1=O`, the outcome was inactive.
Same read-out and setting: for `C/C(=C\C(=O)c1ccccc1)Nc1cccc(O)c1` the value was “inactive”; for `CCN=C1SC(C(N)=O)CC(=O)N1CC` (configuration not stated), “inactive”; for `N#Cc1nc(-c2ccccc2Cl)oc1N1CCOCC1`, “inactive”.
With `COC(=O)c1ccc(OCCn2cnc3ccccc3c2=O)cc1`, the result was inactive.
In the case of `CC(C)Cc1nc(N2CCN(C(=O)C(C)C)CC2)c(C#N)c2c1CCC2`, the outcome was inactive.
The same measure, in the same setting: for `COc1nc(C)ccc1-c1noc(-c2ccncc2)n1` the value was “inactive”.
Same read-out and setting: the value for `N#CC1=C(N)N(c2ccccc2)C2=C(C(=O)CCC2)C1c1ccsc1` (configuration not stated) was “inactive”; that for `CCn1c(SCc2cccnc2)nc2c1c(=O)n(C)c(=O)n2C` was “inactive”.
Same read-out and setting: for `CCn1c(SCC(=O)Nc2ccccc2N2CCCCC2)nc2c1c(=O)n(C)c(=O)n2C` the value was “inactive”.
Turning to `O=C(OCCCCN1C(=O)c2ccccc2C1=O)c1n[nH]c2ccccc12`, the result was inactive.
Same read-out and setting: for `COc1ncnc2c1N=C1CC(C)(C)CC(N)=C1S2` the value was “inactive”; for `Cc1cc(=O)oc2cc(OCC(=O)NCCc3nc4ccccc4[nH]3)ccc12`, “inactive”.
The same measure, in the same setting: the value for `CCOc1ncccc1C(=O)OCc1nnc(-c2ccccc2)o1` was “inactive”; that for `COc1ccc(OC)c(NC(=O)CSc2nc3ccccc3c(=O)n2CCNC(C)=O)c1` was “inactive”; that for `CC(C)C1C2=C(CC(C)(C)CC2=O)ON1c1ccccc1` (configuration not stated) was “inactive”.
Still for that read-out and setting: for `COc1ccc2[nH]c(=O)c(CN(Cc3cccs3)Cc3nnnn3C(C)(C)C)cc2c1` the value was “inactive”; for `COc1ccc2nc(SCC(=O)N3CCCCCC3)c(C#N)cc2c1`, “inactive”.
`CCOC(=O)NCCc1ccc(OC)cc1`: the outcome was inactive.
On the same count and under the same terms, for `COc1ccc(C2=NOC(C(=O)NC3CCCCC3)C2)cc1OC` (configuration not stated) the value was “inactive”; for `COC(=O)/C(=C1/Oc2cc3c(cc2S1)OCO3)C(F)(F)F`, “inactive”.
The same measure, in the same setting: for `CCn1c2ccccc2c2nc3ccccc3nc21` the value was “inactive”; for `O=C(c1cccn2c(=O)c3cc(Cl)ccc3nc12)N1CCN(Cc2ccc3c(c2)OCO3)CC1`, “inactive”.
On the same count and under the same terms, for `N#Cc1nc(-c2cccs2)oc1NCC1CCCO1` (configuration not stated) the value was “inactive”.
Regarding `CC(C)OC(=O)CSc1nnc(-c2cnccn2)n1-c1ccc(Cl)cc1`, the outcome was inactive.
Still for that read-out and setting: for `Cc1cc(NCCCn2ccnc2)n2c(nc3ccccc32)c1C#N` the value was “inactive”; for `CCOC(=O)CN(C(=O)CSc1nnc(-c2ccc(OC)c(OC)c2)o1)c1ccc(F)cc1`, “inactive”.
Same read-out and setting: for `Cc1nnc(SCCn2c(N3CCCC(C)C3)nc3c2c(=O)[nH]c(=O)n3C)s1` (configuration not stated) the value was “inactive”.
For orientation: EC50 means the concentration giving half of the maximal effect. For `CCCCn1c(=NC(=O)c2cccnc2)c(C(=O)OCC)cc2c(=O)n3ccccc3nc21`, the EC50 is 1070 nM.
As for `CCC(C)Nc1nc(OC)nc(N(C)C#N)n1` (configuration not stated), the outcome was inactive.
Still for that read-out and setting: the value for `CCOC(=O)c1c(NC(=O)CSc2nnc(CN3CCOCC3)n2C)sc2c1CCCC2` was “inactive”.
Same read-out and setting: the value for `O=S1(=O)N=C(N2CCc3ccccc3C2)c2ccccc21` was “inactive”; that for `Cn1c(=O)c2c(SCc3ccccc3)nc(-c3ccco3)nc2n(C)c1=O` was “inactive”; that for `CCOC(=O)c1c(C)c(C(=O)NCc2ccccc2OC)c(C)n1C` was “inactive”.
As to `O=c1cc(-c2ccccc2)c2c([nH]1)CCCC2`, the outcome was inactive.
Same read-out and setting: the value for `C=CCSc1nc2ccccc2c(=O)[nH]1` was “inactive”; that for `COc1ccc(C2CC(c3ccc(Cl)cc3Cl)Nc3nc(N)nn32)cc1` (configuration not stated) was “inactive”.
On the same count and under the same terms, for `CCN(CCCNC(=O)CN(C)S(=O)(=O)c1cccc2nsnc12)c1cccc(C)c1` the value was “inactive”; for `C=CCn1c(SCC(=O)Nc2sc(C)c(C)c2C(=O)OCC)nnc1-c1sc(N)nc1C`, “inactive”; for `N#CC1=C(N)Oc2n[nH]c(-c3cccs3)c2C1c1ccsc1` (configuration not stated), “inactive”.
Same read-out and setting: the value for `C/C(CCc1oc2ccccc2c1-c1ccc(C)o1)=N/O` was “inactive”; that for `COC(=O)c1c(NC(=O)Cc2cccs2)sc2c1CCC(C)C2` (configuration not stated) was “inactive”.
Regarding `COc1ccc(CN(Cc2cccnc2)S(=O)(=O)c2ccc(-n3cnnn3)c(C)c2)cc1OC`, the result was inactive.
On the same count and under the same terms, the value for `C=CCNC(=O)c1ccccc1NC(=O)c1ccccc1` was “inactive”; that for `CC(C)Oc1ccccc1C1CC(=O)Nc2cc3c(cc21)OCCO3` (configuration not stated) was “inactive”; that for `N#CC1=C(N)n2c(s/c(=C\c3ccco3)c2=O)=C(C#N)C1c1ccco1` (configuration not stated) was “inactive”.
As for `CCC(=O)NC(=Nc1nc2ccccc2s1)NC(=O)CC`, the EC50 is 1900 nM.
As to `CCOC(=O)c1nn(-c2ccc(OC)cc2)c(=O)c2c(N)scc12`, the result was inactive.
On the same count and under the same terms, for `C(=N\C(/N=C/c1ccco1)c1ccco1)/c1ccco1` the value was “inactive”; for `CCc1ccc2oc(=O)cc(CN3CCOCC3)c2c1`, “inactive”; for `c1ccc(-c2nn3c(-c4ccccc4)nnc3s2)cc1`, “inactive”.
On the same count and under the same terms, the value for `Clc1ccc(-n2nnnc2-c2ccccc2)cc1` was “inactive”.
